Experimental data taken from US8211463B2, “Use of glycolipids as adjuvants” (Helmholtz-Zentrum Fuer Infektionsforschung GmbH, priority 2006, dated 2012).
Entries after “also recorded” stand apart in the source; their conditions may differ.

How the values were obtained:
[1] = system: β-Gal-specific mucosal S-IgA; test: β-Gal-specific secretory IgA in bronchial alveolar and vaginal lavages after i.n. immunisation; format: in vivo, Balb/c mice; settings: for expression of β-Gal-specific S-IgA titers (lavage not named, FIG. 6): 20 up to 30 μg glycolipid, probably vaginal lavage
Method: Co-administration of β-Gal with 10 μg glycolipids 1, 5 and 6 induced β-Gal-specific mucosal S-IgA responses in Balb/c mice. Balb/c mice were immunized by the i.n. or s.c. route with β-Gal alone or together with glycolipids 1, 5 and 6 three times at 2-wk intervals. 10 days after the final immunization, the immunized mice were sacrificed. β-Gal-specific S-IgA titers were determined in vaginal lavage (VL) and Bronchial alveolar lavage (BAL) of mice immunized with β-Gal co-administered with glycolipids 1, 5 and 6 by the intranasal route. […] Bars represent mean Ab titer or amount±SE in each group. Each group consists of five mice. Data are representative of three separate experiments.
Co-administration of β-Gal with 20 up to 30 μg glycolipids 5 and 6 induced β-Gal-specific mucosal S-IgA responses in Balb/c mice. Balb/c mice were immunized by the i.n. or s.c. route with β-Gal alone or together with glycolipids 5 and 6 three times at 2-wk intervals. 10 days after the final immunization, the immunized mice were sacrificed. β-Gal-specific S-IgA titers were determined in vaginal lavage (VL) and Bronchial alveolar lavage (BAL) of mice immunized with β-Gal co-administered with glycolipids 5 and 6 by the intranasal route.
Experimental protocol: at day 38, mice were sacrificed and the final sampling was performed. Vaginal and lung lavages were obtained by flushing the organs with 1 ml of PBS supplemented with 50 mM EDTA, 0.1% BSA, and 10 mM PMSF. Lavages were then centrifuged to remove debris (10 min at 3000×g), and supernatant fluids were stored at −20° C. To determine the concentration of total IgA present in the lung and vaginal lavages, serial dilutions of the corresponding samples were incubated in microtiter plates that were previously coated with goat anti-mouse IgA (Sigma Chemie), as capture antibodies (100 μl/well). Serial dilutions of purified mouse IgA (Sigma Chemie) were used to generate a standard curve.

[2] = system: β-Gal-specific IgG isotypes; test: IgG isotype ELISA (IgG, IgG1, IgG2a) in sera of vaccinated mice; format: in vivo, Balb/c mice; settings: for enhancement of β-Galactosidase-specific IgG secretion vs β-Gal alone / increase of β-Gal-specific IgG1 secretion vs β-Gal alone / increase of β-Gal-specific IgG2a secretion vs β-Gal alone / increase of β-Gal specific IgG1 secretion vs β-Gal alone / secretion of IgG2a isotype vs β-Gal alone: 10 μg glycolipid; for increase of β-Gal specific IgG1 secretion vs β-Gal alone / secretion of IgG2a isotype vs β-Gal alone: s.c. (parenteral); for enhancement of β-Galactosidase-specific IgG2a isotype vs β-Gal alone: 20 or 30 μg glycolipid, dose-dependent
Method: Co-administration of β-Gal with 10 μg glycolipids 1, 5 and 6 induced β-Gal-specific systemic IgG responses in Balb/c mice. Balb/c mice were immunized by the i.n. or s.c. route with β-Gal alone or together with glycolipids 1, 5 and 6 three times at 2-wk intervals. 10 days after the final immunization, the immunized mice were sacrificed. The levels of β-Gal-specific titers of IgG isotypes were determined in Sera of mice immunized by the i.n. (A) and s.c. (B) route. […] Bars represent mean Ab titer or amount±SE in each group. Each group consists of five mice. Data are representative of three separate experiments.
Co-administration of β-Gal with 20 or 30 μg glycolipids 5 and 6, respectively, induced β-Gal-specific systemic IgG responses in Balb/c mice. Balb/c mice were immunized by the i.n. or s.c. route with β-Gal alone or together with glycolipids 5 and 6 three times at 2-wk intervals. 10 days after the final immunization, the immunized mice were sacrificed. The levels of β-Gal-specific titers of IgG isotypes were determined in Sera of mice immunized by the i.n. (A) and s.c. (B) route. […] The parenteral administration of with β-Gal co-administered with 20 μg glycolipids 5 and 6 enhanced the β-Galactosidase-specific IgG1 isotype titer (>250000) in comparison to animals which were immunized with β-Gal alone. Bars represent mean Ab titer or amount±SE in each group. Each group consists of five mice. Data are representative of two separate experiments.
Isotyp ELISA: 96-well Nunc-Immuno MaxiSorp assay plates (Nunc, Roskilde, Denmark) were coated with 100 μl of β-Gal (Boehringer, Mannheim, Germany) at 5 μg/ml in 0.05 M carbonate buffer (pH 8.2) per well. Serial two-fold dilutions of sera or lavages in PBS with 1% BSA and 0.05% Tween 20 were added (100 μl/well), and plates incubated for 2 h at 37° C. After washing, biotin-conjugated rat anti-mouse IgG1 or IgG2a (Pharmingen, Hamburg, Germany) were added to determine IgG subclasses. Plates were incubated for an additional 1 h at 37° C. After four washes, 100 μl of peroxidase-conjugated streptavidin (Pharmingen) was added to cells and plates incubated at 37° C. for 30 min. After four washes, reactions were developed with ABTS in 0.1 M citrate-phosphate buffer (pH 4.35) containing 0.01% H2O2. To determine the concentration of IgG subclasses in serum, standard curves were obtained by coating the wells with an isotype-specific goat anti-mouse IgG, and then by incubating with purified mouse IgG1 or IgG2a antibodies (Dianova, Hamburg, Germany).

[3] = 10 μg glycolipid + 30 μg β-Gal, day 38
[4] = i.n. co-administration with β-Gal (FIG. 9 and FIG. 10)
[5] = s.c. co-administration with β-Gal (FIG. 9 and FIG. 10)
[6] = 20 up to 30 μg glycolipid + 30 μg β-Gal, day 38

| SMILES | β-Galactosidase-specific sIgA titer in bronchial alveolar lavage (BAL) [1, 3] | IgG1 / IgG2a isotype pattern (Th2 / Th1) [2, 4] | enhancement of β-Galactosidase-specific IgG secretion vs β-Gal alone ([2]; i.n.) | increase of β-Gal-specific IgG1 secretion vs β-Gal alone ([2]; i.n.) | increase of β-Gal-specific IgG2a secretion vs β-Gal alone ([2]; i.n.) | increase of β-Gal specific IgG1 secretion vs β-Gal alone [2] | secretion of IgG2a isotype vs β-Gal alone [2] | IgG1 / IgG2a isotype pattern (Th2 / Th1) [2, 5] | β-Galactosidase-specific sIgA in vaginal lavages [1, 3] | β-Galactosidase-specific sIgA titer in bronchial alveolar lavage (BAL) [1, 6] | expression of β-Gal-specific S-IgA titers (lavage not named, FIG. 6) [1] | enhancement of β-Galactosidase-specific IgG2a isotype vs β-Gal alone ([2]; i.n.) | enhancement of β-Galactosidase-specific IgG secretion vs β-Gal alone ([2]; s.c.) |
| --- | --- | --- | --- | --- | --- | --- | --- | --- | --- | --- | --- | --- | --- |
| CCCCCCCC/C=C\CCCCCCCCOCC(COCCCCCCCC/C=C\CCCCCCCC)O[C@@H]1O[C@H](CO)[C@@H](O[C@H]2O[C@H](CO)[C@@H](O)[C@H](O)[C@H]2O)[C@H](O)[C@H]1O (relative stereo) [glycolipid 1, 1,3-Di-O[cis-9-octadecenyl]-2-O-[4′-O-(α-D-glycopyranosyl)-β-D-glycopyranosyl]-sn-glycerol] | below the detection level | dominant Th2 pattern | no effect | no effect | no effect | 2.5 fold | no enhanced secretion | dominant Th2 pattern | – | – | – | – | – |
| CCCCCCCCCCCCCCOCC(COCCCCCCCCCCCCCC)O[C@@H]1O[C@H](CO)[C@@H](O[C@H]2O[C@H](CO)[C@@H](O)[C@H](O)[C@H]2O)[C@H](O)[C@H]1O [glycolipid 5, 1,3-Di-O-tetradecyl-2-O-[4′-O-(α-D-glucopyranosyl)-β-D-glucopyranosyl]-sn-glycerol] | > 1/130 and significant increase | dominant Th2 pattern | 29 fold | 50 fold | 6 fold | 2.2 fold | no enhanced secretion | dominant Th2 pattern | enhanced | > 1/170 and significant increase | comparable with titer of the control groups | 7 fold | 7 fold |
| CCCCCCCCCCCCCCOCC(COCCCCCCCCCCCCCC)O[C@@H]1O[C@H](CO[C@H]2O[C@H](CO)[C@H](O)[C@H](O)[C@H]2O)[C@@H](O)[C@H](O)[C@H]1O [glycolipid 6, 1,3-di-O-tetradecyl-2-O-[6′-O-(α-D-galactopyranosyl)-β-D-glucopyranosyl]-sn-glycerol] | below the detection level | comparable expression of IgG1 and IgG2a isotypes | 8 fold | 24 fold | 1.8 fold | no effect | no enhanced secretion | dominant Th2 response | – | comparable sIgA titers in BAL; also recorded: significant increase | comparable with titer of the control groups | 7 fold | – |
